Test results: PubChem BioAssay (NCI)
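Five concentrations, 48 hours, 96-well plates. TGI: concentration producing complete growth inhibition.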

Key:
Assay in all cases: DTP human tumour cell line panel, 48 h
DMS 273 small cell lung = test system: DMS 273 small cell lung
M19-MEL melanoma = test system: M19-MEL melanoma
HOP-18 NSCLC = test system: HOP-18 NSCLC
DLD-1 colon = test system: DLD-1 colon
SNB-78 CNS = test system: SNB-78 CNS
CAKI-1 renal = test system: CAKI-1 renal
NCI/ADR-RES ovarian = test system: NCI/ADR-RES ovarian

Measured: TGI

O=c1c(C(c2ccc(Cl)cc2)c2c(O)c3ccccc3n(-c3ccccc3)c2=O)c(O)c2ccccc2n1-c1ccccc1
not listed: NCI/ADR-RES ovarian
> 100 µM: all other assays above

CN1C2CCC1CC(C)(O)C2 (configuration not stated)
> 100 µM: NCI/ADR-RES ovarian
